Laboratory results from US9938258B2 (Karyopharm Therapeutics Inc., priority 2012, dated 2018).

Legend:
[1] = test system: Z-138 mantle cell lymphoma cancer xenograft; experiment: Z-138 mouse xenograft model; type: in vivo; conditions: QDx5/week for 4 weeks, SCID mice with Z-138 tumors; for tumor growth (mean tumor volume): versus cyclophosphamide 80 mg/kg Days 1-3
Procedure: The oncological impact of selected substituted 2,3-dihydrobenzofuranyl compounds was tested using a Z-138 mantle cell lymphoma cancer xenograft model in SCID mice. SCID Mice were inoculated s.c. in both flanks with 5×10^6 Z-138 cells. When the tumors reached a mean size of between 100 and 200 mm^3, mice were randomly and prospectively divided. Tumor-bearing mice were treated with vehicle, cyclophosphamide (positive control) or Compound 123 on M-F (QDx5/week) for 4 weeks. Compound 123 was administered orally (PO) at initial doses of 30 and 100 mg/kg five times a week. Cyclophosphamide was given as a positive control at 80 mg/kg on Days 1-3. Animals' weights and conditions were recorded daily, and tumors were measured on Mondays-Wednesdays-Fridays.

Z-138 cells = experiment: Cell cycle arrest (BrdU / 7-AAD flow cytometry); type: cell-based; conditions: 1 μM for 1, 2 and 3 days
Procedure: Z-138 cells (mantle cell lymphoma) were plated at a density of 1×10^6 cells/well and treated with no drug (DMSO control) or with 1 μM Compound 123 for 1, 2, and 3 days in culture. For each time point, cells were treated with 10 μM BrdU for 2 hours, then collected by centrifugation. Cells were subsequently washed, fixed, and then stained for BrdU and total DNA (7-AAD). BrdU incorporation and cell cycle analysis were analyzed by flow cytometry at the Dana Farber Cancer Institute on a BD Fortessa Analyzer. Data was then analyzed using FCS Express 4 software.
FIGS. 1A, 1B, 1C and 1D are single-cell scatter plots and show BrdU versus 7-AAD for Z138 cells treated with no drug (FIG. 1A) or treated with 1 μM Compound 123 for 1 day (FIG. 1B), 2 days (FIG. 1C), or 3 days (FIG. 1D). Graphs showing cell count versus 7-AAD intensities are depicted below their corresponding scatter plots.

3T3 cells = experiment: MTT cell proliferation assay, 3T3; type: cell-based, mouse; conditions: Mus musculus, NIH3T3, 3T3 cells; eight concentrations 1 nM to 30 μM; incubation approximately 64-72 hours; read-out: MTT Assay IC50, 3T3
Outline: (§1)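 Read-out: MTT reduction to formazan, solubilised and measured at 490 nm after ~4 h with MTT; inhibition (%) = (1-(ODo/OD))×100 relative to negative control. Seeding was 5,000-10,000 cells/well with overnight attachment. Eight test concentrations spanned 1 nM-30 μM; mostly duplicate, mean ± SE.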

Z138 cells = experiment: MTT cell proliferation assay, Z138; type: cell-based; conditions: Homo sapiens, Z-138, Z138 cells; eight concentrations 1 nM to 30 μM; incubation approximately 64-72 hours; read-out: MTT Assay IC50, Z138
Outline: as §1

MS751 cells = experiment: MTT cell proliferation assay, MS751; type: cell-based, human; conditions: Homo sapiens, MS751, MS751 cells; eight concentrations 1 nM to 30 μM; incubation approximately 64-72 hours; read-out: MTT Assay IC50, MS751
Outline: as §1

[2] = test system: MDA-MB-468 (triple negative breast) cancer xenograft; experiment: MDA-MB-468 mouse xenograft model; type: in vivo, CB-17 SCID mice; conditions: 30 mg/kg QDx5 or 15 mg/kg QDx5 PO for 9 weeks; SCID mice with MDA-MB-468 tumors; versus vehicle
Procedure: The oncological impact of Compound 116 was tested using a MDA-MB-468 (triple negative breast) cancer xenograft model in CB-17 SCID mice. MDA-MB-468 (ATCC # HTB-102) breast adenocarcinoma cells were obtained from ATCC. These cells were grown in high glucose DMEM medium supplemented with 10% fetal bovine serum, 1% penicillin and streptomycin, and 2 mM L-glutamine. Cells were sub-cultured by dilution at a ratio of 1:4. MDA-MB-468 cells were harvested by trypsinization and counted using a hemocytometer. Cells were resuspended in PBS at a concentration of 4×10^8 cells per mL. Cells were placed on ice and mixed with an equal volume of Matrigel (BD Biosciences CB-40234). This mixture was kept on ice and injected into the left flank of mice in a volume of 0.2 mL, equivalent to 4×10^7 cells per mouse. When the tumors reached a mean size of between 100 and 200 mm^3, mice were randomly and prospectively divided. Tumor bearing mice were treated with vehicle or Compound 116 on M-F (QDx5/week) for 9 weeks. Compound 116 was administered orally (PO) at initial doses of 15 and 30 mg/kg five times a week. Animals' weights and condition were recorded daily, tumors were measured once every two days with micro-calipers, and tumor volume was calculated as (length×width×width)/2.

With `CC(=O)c1ccc(-c2cc(Cl)c3c(c2)CC(CNC(=O)/C=C/c2cccnc2)O3)s1` (single isomer, unassigned) [Compound 123, (E)-N-((5-(5-acetylthiophen-2-yl)-7-chloro-2,3-dihydrobenzofuran-2-yl)methyl)-3-(pyridin-3-yl)acrylamide] the “tumor growth (mean tumor volume)” value ([1]; 30 mg/kg PO) was “inhibited tumor growth with an efficacy better than that of cyclophosphamide”, the “tumor growth (mean tumor volume)” value ([1]; 100 mg/kg PO) was “inhibited tumor growth with an efficacy similar to cyclophosphamide” and the “tolerability (mean percent weight change)” value ([1]; 30 and 100 mg/kg PO) was “tolerated at both doses”. The G1 (Z-138 cells) was “no change”, the G2/M (Z-138 cells) was “increased” and the S phase (Z-138 cells) was “significant decrease”. The sub-G1 fraction (Z-138 cells) was “small increase”, the IC50 (3T3 cells) was 100 to 5000 nM and the IC50 (Z138 cells) was less than 100 nM. For the same molecule, the IC50 (MS751 cells) was less than 100 nM.

For `CC(=O)c1ccc(-c2cc(Cl)c3c(c2)CC(CNC(=O)/C=C/c2ccc(N)nc2)O3)s1` (centres unmarked) [Compound 116, (E)-N-((5-(5-acetylthiophen-2-yl)-7-chloro-2,3-dihydrobenzofuran-2-yl)methyl)-3-(6-aminopyridin-3-yl)acrylamide], the IC50 (3T3 cells) was 5000 to 30000 nM, the IC50 (Z138 cells) was 100 to 5000 nM and the mean tumor volume [2] was “reduced”. It also gave an IC50 (MS751 cells) of 100 to 5000 nM.
